From patent publication EP0237516A1, “Benzyl-pyrimidine derivatives, process for their preparation and compositions containing them” (COMPAGNIE ROUSSELOT, Société Anonyme:, priority 1986, dated 1987)
Converted amounts (≈) assume the structure as drawn. Read-outs that look alike come from different tables or passages of the source.

What was measured:
Listeria monocytogenes = assay: MIC determination by serial dilution on Mueller-Hinton agar, trimethoprim-sensitive strains; assay type: cell-based; conditions: isethionates; for MIC: 18 h, Listeria monocytogenes 485, TMP-sensitive, read-out: CMI
Procedure: (§1) A cet effet, on a déterminé l'activité bactériostatique par la méthode des antibiogrammes par dilution en milieu gélosé (milieu de MUELLER-HINTON déshydraté) et par diffusion en milieu gélosé.
(§2) On a utilisé le composé à étudier selon une gamme de concentrations de 0,625 à 640 µg/ml (progression de raison 2) à partir de solutions-mères titrant 640 µg/ml à 1280 µg/ml selon la solubilité du composé, toutes les dilutions ultérieures ayant été réalisées dans un mélange méthanol/eau à 20%.
(§3) On a procédé sur milieu gélosé de MUELLER-HINTON déshydraté, par la méthode des dilutions sériées, les concentrations finales en composé à étudier s'échelonnant de 0,0625 à 32 ou 64 µg/ml.
(§4) A cet effet, on ensemence des boîtes de PETRI à l'aide d'un inoculateur multiple (inoculum de 5 x 10³ à 1 x 10⁴ unités formant colonies par spot d'inoculation) et on enregistre le résultat après 18 h à 37°C en ne tenant pas compte des micro-colonies qui se développent parfois ni de la présence de moins de 4 colonies d'aspect normal.

Escherichia coli = assay: as above; assay type: cell-based; conditions: isethionates, read-out: CMI
Procedure: as §1, §2, §3, §4

Serratia marcescens = assay: as above; assay type: cell-based; conditions: 18 h; Serratia marcescens 56644; isethionates; read-out: CMI
Procedure: as §1, §2, §3, §4

Staphylococcus aureus = assay: as above; assay type: cell-based; conditions: isethionates, read-out: CMI
Procedure: as §1, §2, §3, §4

[1] = tested on: souches de Staphylococcus aureus résistant à la triméthoprime; assay: MIC determination by serial dilution on Mueller-Hinton agar; assay type: cell-based; conditions: 18 h, compounds as isethionate, read-out: CMI
[2] = tested on: souches de Staphylococcus aureus résistant à la triméthoprime; assay: as above; assay type: cell-based; conditions: 18 h, from hospitalised patients, compounds as free base, read-out: CMI
Procedure: as §1, §2, §3, §4
Les composés sous forme basique, des Exemples 1 et 4 ont été étudiés comparativement à la triméthoprime (TMP) à l'égard de 4 souches provenant de malades hospitalisés.
A cet effet, on a solubilisé les composés à étudier sous forme basique dans un mélange comprenant 9 ml d'eau distillée, 1 ml de diméthylformamide et quelques gouttes d'acide iséthionique.

[3] = tested on: souches de Staphylococcus aureus résistant à la triméthoprime; assay: Bacteriostatic activity by disc diffusion on Mueller-Hinton agar; assay type: cell-based; conditions: 5 µg per disc, free base, read-out: Diamètre d'inhibition
Procedure: On utilise à cet effet le milieu gélosé de MUELLER-HINTON que l'on ensemence par inondation à partir d'une suspension bactérienne titrant 5 x 10⁶ à 1 x 10⁷ unités formant colonies par ml. On imprègne les disques (disque de 6 mm de diamètre de SCHLEICHER et SCHULL) avec 20 µl d'une solution de chaque composé à étudier de façon à obtenir une charge de 5 µg par disque. A titre de contrôle lors de chaque manipulation, on charge également un disque avec 5 µg de triméthoprime. On néglige également dans ce test les microcolonies qui peuvent apparaître à l'intérieur des zones d'inhibition.
On a obtenu les résultats suivants exprimés en mm d'inhibition, avec des composés de l'invention sous forme basique comparativement à la triméthoprime. Ces résultats ont été enregistrés vis-à-vis de souches de Staphylococcus aureus résistant à la triméthoprime.

[4] = tested on: 73 souches de bacilles à Gram -; assay: Activity against Gram-negative bacilli, count of resistant strains; assay type: cell-based; conditions: number of resistant strains out of 73 Gram-negative bacilli strains
Source text: (§5) L'action du composé de l'Exemple 21 a été étudiée comparativement à l'iséthionate de triméthoprime vis-à-vis de 73 souches de bacilles à Gram -. Des résultats trouvés, on a pu conclure que 33 souches étaient résistantes au sel de triméthoprime et 65 souches étaient résistantes au composé de l'Exemple 21.

bacilles à Gram - = assay: Activity in association with sulfamethoxazole; assay type: cell-based
Source text: as §5
Par contre, si on associe chacun de ces composés au sulfaméthoxazole, le spectre d'activité de l'association composé de l'Exemple 21/-sulfaméthoxazole est similaire à celui de l'association de triméthoprime/ sulfaméthoxazole.

[5] = Acute toxicity, intravenous; conditions: mouse, in vivo; mice, groups of 5, intravenous route; read-out: DL₅₀
Procedure: La toxicité aiguë des composés de l'invention a été déterminée sur des lots de 5 souris par voie intraveineuse. On a ainsi trouvé que la DL₅₀du composé de l'Exemple 9, selon cette voie d'administration, est de 157,4 mg/kg.

[6] = Listeria monocytogenes 378, TMP-sensitive
[7] = ATCC25922, 18 h, Escherichia coli ATCC 25922
[8] = 18 h, Staphylococcus aureus 18839, TMP-sensitive
[9] = ATCC6338, 18 h, Staphylococcus aureus ATCC 6338, TMP-sensitive
[10] = ATCC25923, 18 h, Staphylococcus aureus ATCC 25923, TMP-sensitive
[11] = strain No. 23543, TMP-resistant
[12] = strain No. 33274, TMP-resistant
[13] = strain No. 40314, TMP-resistant
[14] = strain No. 57760, TMP-resistant
[15] = Listeria monocytogenes 5921, TMP-sensitive
[16] = Listeria monocytogenes 6777, TMP-sensitive

Compound	MIC (Listeria monocytogenes) [µg/mL]	MIC ([1]; strain No. 82, TMP-resistant) [µg/mL]	MIC ([1]; strain No. 87, TMP-resistant) [µg/mL]	MIC ([1]; strain No. 102, TMP-resistant) [µg/mL]	MIC [2, 11] [µg/mL]	MIC [2, 12] [µg/mL]	MIC [2, 13] [µg/mL]	MIC [2, 14] [µg/mL]	CMI (Listeria monocytogenes; [6])	MIC (Escherichia coli; 18 h, Escherichia coli 33430) [µg/mL]	MIC (Escherichia coli; [7]) [µg/mL]	MIC (Serratia marcescens) [µg/mL]	MIC (Staphylococcus aureus; [9]) [µg/mL]	MIC (Staphylococcus aureus; [10]) [µg/mL]	MIC ([1]; strain No. 101, TMP-resistant) [µg/mL]	zone of inhibition at 5 µg/disc [3, 11] [mm]	zone of inhibition at 5 µg/disc [3, 12] [mm]	zone of inhibition at 5 µg/disc [3, 13] [mm]	zone of inhibition at 5 µg/disc [3, 14] [mm]	MIC ([1]; strain No. 107, TMP-resistant) [µg/mL]	further results
CCOc1cc(I)c(Cc2cnc(N)nc2N)cc1OC [Ex. 1, diamino-2,4 (iodo-2 éthoxy-4 méthoxy-5 benzyl)-5 pyrimidine]	–	–	–	–	2 (≈ 5 µM)	< 0.06	0.12 (≈ 0.3 µM)	1 (≈ 2.5 µM)	–	–	–	–	–	–	–	19	32	32	24	–	–
COc1cc(Cc2cnc(N)nc2N)c(Br)cc1OC1CCCC1 [Ex. 21, Iséthionate de diamino-2,4 (bromo-2 cyclopentyloxy-4 méthoxy-5 benzyl)-5 pyrimidine]	0.06 (≈ 0.153 µM)	1 (≈ 2.54 µM)	1 (≈ 2.54 µM)	1 (≈ 2.54 µM)	–	–	–	–	0,06 µg/ml	16 (≈ 40.7 µM)	32 (≈ 81.4 µM)	16 (≈ 40.7 µM)	0.06 (≈ 0.153 µM)	0.5 (≈ 1.27 µM)	2 (≈ 5.09 µM)	–	–	–	–	4 (≈ 10.2 µM)	CMI (Listeria monocytogenes; [15]): 0,06 µg/ml; CMI (Listeria monocytogenes; [16]): 0,06 µg/ml; souches résistantes [4]: 65 souches; MIC ([1]; strain No. 109, TMP-resistant): 0.5 µg/mL (≈ 1.27 µM); potentialisation du sulfaméthoxazole (bacilles à Gram -; compared with the trimethoprim salt): potentialise aussi bien le sulfaméthoxazole que ne le fait le sel de triméthoprime; spectre d'activité de l'association (bacilles à Gram -; in association with sulfaméthoxazole, compared with the association triméthoprime/sulfaméthoxazole): similaire
CCOc1cc(I)c(Cc2cnc(N)nc2N)cc1OCC [Exemple 9, Lactobionate de diamino-2,4 (iodo-2 diéthoxy-4,5 benzyl)-5 pyrimidine]	–	–	–	–	–	–	–	–	–	–	–	–	–	–	–	–	–	–	–	–	LD50 [5]: 157 mg/kg
COc1cc(Cc2cnc(N)nc2N)cc(OC)c1OC [Iséthionate de TMP, iséthionate de triméthoprime, reference compound]	–	16 (≈ 55.1 µM)	8 (≈ 27.6 µM)	16 (≈ 55.1 µM)	–	–	–	–	–	8 (≈ 27.6 µM)	4 (≈ 13.8 µM)	2 (≈ 6.89 µM)	0.06 (≈ 0.207 µM)	0.25 (≈ 0.861 µM)	16 (≈ 55.1 µM)	–	–	–	–	64 (≈ 220 µM)	souches résistantes [4]: 33 souches; MIC ([1]; strain No. 109, TMP-resistant): 8 µg/mL (≈ 27.6 µM)
COc1cc(Cc2cnc(N)nc2N)cc(OC)c1OC [TMP, diamino-2,4 (triméthoxy-3,4,5 benzyl)-5 pyrimidine, reference compound]	–	–	–	–	16 (≈ 55.1 µM)	> 64	64 (≈ 220 µM)	> 64	–	–	–	–	–	–	–	0	0	0	0	–	–

Second part, led by results:

MIC (Listeria monocytogenes) [µg/mL]	MIC ([1]; strain No. 82, TMP-resistant) [µg/mL]	MIC ([1]; strain No. 87, TMP-resistant) [µg/mL]	MIC ([1]; strain No. 102, TMP-resistant) [µg/mL]	MIC [2, 11] [µg/mL]	MIC [2, 12] [µg/mL]	MIC [2, 13] [µg/mL]	MIC [2, 14] [µg/mL]	Compound	CMI (Listeria monocytogenes; [6])	MIC (Escherichia coli; 18 h, Escherichia coli 33430) [µg/mL]	MIC (Escherichia coli; [7]) [µg/mL]	MIC (Serratia marcescens) [µg/mL]	MIC (Staphylococcus aureus; [9]) [µg/mL]	MIC (Staphylococcus aureus; [10]) [µg/mL]	MIC ([1]; strain No. 101, TMP-resistant) [µg/mL]	zone of inhibition at 5 µg/disc [3, 11] [mm]	zone of inhibition at 5 µg/disc [3, 12] [mm]	zone of inhibition at 5 µg/disc [3, 13] [mm]	zone of inhibition at 5 µg/disc [3, 14] [mm]	MIC ([1]; strain No. 107, TMP-resistant) [µg/mL]	further results
0.25 (≈ 0.795 µM)	32 (≈ 102 µM)	8 (≈ 25.4 µM)	32 (≈ 102 µM)	–	–	–	–	COc1cc(Cc2cnc(N)nc2N)ccc1OC1CCCC1 [Composé X, reference compound]	0,25 µg/ml	> 64	> 64	32 (≈ 102 µM)	0.25 (≈ 0.795 µM)	1 (≈ 3.18 µM)	32 (≈ 102 µM)	–	–	–	–	–	MIC (Staphylococcus aureus; [8]): 0.5 µg/mL (≈ 1.59 µM)
–	–	–	–	2 (≈ 4.54 µM)	0.25 (≈ 0.568 µM)	< 0.06	2 (≈ 4.54 µM)	COc1cc(Cc2cnc(N)nc2N)c(I)cc1OC1CCCC1 [Ex. 4, Diamino-2,4 (iodo-2 cyclopentyloxy-4 méthoxy-5 benzyl)-5 pyrimidine]	–	–	–	–	–	–	–	19	29	35	20	–	–
–	2 (≈ 4.54 µM)	2 (≈ 4.54 µM)	4 (≈ 9.09 µM)	–	–	–	–	COc1cc(Cc2cnc(N)nc2N)c(I)cc1OC1CCCC1 [Ex. 18, Iséthionate de diamino-2,4 (iodo-2 cyclopentyloxy-4 méthoxy-5 benzyl)-5 pyrimidine]	–	–	–	–	–	–	–	–	–	–	–	4 (≈ 9.09 µM)	–
0.06 (≈ 0.147 µM)	0.5 (≈ 1.23 µM)	1 (≈ 2.46 µM)	0.5 (≈ 1.23 µM)	–	–	–	–	COc1cc(Cc2cnc(N)nc2N)c(Br)cc1OC1CCCCC1 [Ex. 24, Iséthionate de diamino-2,4 (bromo-2 cyclohexyloxy-4 méthoxy-5 benzyl)-5 pyrimidine]	0,06 µg/ml	> 64	> 64	> 64	0.06 (≈ 0.147 µM)	–	0.5 (≈ 1.23 µM)	–	–	–	–	–	CMI (Listeria monocytogenes; [15]): 0,06 µg/ml; CMI (Listeria monocytogenes; [16]): 0,06 µg/ml; MIC (Staphylococcus aureus; [8]): 0.06 µg/mL (≈ 0.147 µM)
